Consider two compounds from patent US20080312207A1, “Compounds” (priority 2004, published 2008).

In series [1] the target is T1, recombinant human pancreatic GLK (Homo sapiens, UniProt P35557).
T1 construct: 6-His (N); made in house; host or cells: E. coli BL21
T1 sequence (P35557 1-465): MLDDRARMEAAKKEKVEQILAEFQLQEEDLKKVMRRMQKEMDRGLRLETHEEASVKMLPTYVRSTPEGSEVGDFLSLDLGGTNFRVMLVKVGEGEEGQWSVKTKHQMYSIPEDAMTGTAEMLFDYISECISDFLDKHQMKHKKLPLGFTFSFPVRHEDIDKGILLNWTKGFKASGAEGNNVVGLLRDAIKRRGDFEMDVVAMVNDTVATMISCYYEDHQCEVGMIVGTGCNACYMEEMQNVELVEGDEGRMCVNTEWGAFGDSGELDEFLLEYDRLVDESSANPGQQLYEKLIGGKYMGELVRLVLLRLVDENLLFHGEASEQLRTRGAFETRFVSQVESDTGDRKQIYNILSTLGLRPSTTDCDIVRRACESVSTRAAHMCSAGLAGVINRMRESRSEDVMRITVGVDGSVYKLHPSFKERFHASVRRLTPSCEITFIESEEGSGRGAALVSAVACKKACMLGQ
Put plainly: Enzymatic activity of GLK (G-6-P dehydrogenase coupled, NADP/NADPH, OD 340 nm). It is filed as biochemical. To be noted: read-out: activating activity for glucokinase, EC50.

The next series concerns Zucker obese fa/fa rats. Kind of series: Oral Glucose Tolerance Test (OGTT). It is filed as in vivo, rat. The following applies: 10 mg/kg, given orally 120 minutes before glucose 2 g/kg; percent inhibition of blood glucose AUC vs vehicle. The protocol: The animals were fasted for 2 hours before use for experiments. A test compound or a vehicle was given orally 120 minutes before oral administration of a glucose solution at a dose of 2 g/kg body weight. Blood glucose levels were measured using a Accucheck glucometer from tail bled samples taken at different time points before and after administration of glucose (time course of 60 minutes). […] Percent inhibition is determined using the AUC in the vehicle-control group as zero percent inhibition.

A further series in a line: Oral exposure. It is filed as in vivo. The following applies: compared with Example II107 in WO 03/015774.

For the compound `CC(C)Oc1cc(Oc2ccc(S(C)(=O)=O)cc2)cc(C(=O)Nc2nccs2)c1` [Example 7c, 3-(1-methylethyl)oxy-5-[4-(methylsulfonyl)phenoxy]-N-1,3-thiazol-2-ylbenzamide], the EC50 – broadly, the concentration that produces a half-maximal response – in series [1] was 50 nM. Also, the OGTT activity with Zucker obese fa/fa rats is listed as 18%. Further, the oral exposure entry in “Oral exposure” is listed as “superior”.
As to `Cc1cnc(NC(=O)c2cc(OCCc3ccsc3)cc(OC(C)C)c2)s1` [Example II107 in WO 03/015774, reference compound], in the series on Zucker obese fa/fa rats, the OGTT activity entry is “not active”.
